Laboratory results published in the supplement of paper PMC4862054.
Each block holds one compound with its values, some of them ahead of it.

Assays:
Conditions in all cases: 72 h
[1] = tested on: HCC1599
In short: (§1)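 Breast cancer cell lines in 20 µl suspension were seeded onto 384-well plates that already held compound dissolved in 5 µl medium and were incubated for 72 h. Viability was measured by adding 2.5 µl CellTiter-Blue for 2 h at 37 °C and reading fluorescence at 560/590 nm. Each plate was normalised to vehicle and a positive kill control and checked by Z'-factor. EC50 was taken from a fitted percent-inhibition dose-response curve, censored at the highest concentration, and rows with a drug sensitivity score of zero were removed.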

[2] = tested on: BT-549
In short: as §1

[3] = tested on: CAL-120
In short: as §1

[4] = tested on: HCC1937
In short: as §1

[5] = tested on: MFM-223
In short: as §1

[6] = tested on: Hs578T
In short: as §1

[7] = tested on: SK-BR-3
In short: as §1

[8] = tested on: BT-474
In short: as §1

[9] = tested on: MDA-MB-468
In short: as §1

[10] = tested on: MDA-MB-436
In short: as §1

[11] = tested on: MDA-MB-231
In short: as §1

[12] = tested on: MCF-10A
Description: (§2)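 Drug sensitivity and resistance testing (DSRT) of breast cancer cell lines in 384-well plates, 5 concentrations in 10-fold dilutions over a compound-specific 10,000-fold range. After 72 h, cytotoxicity was read by CellTox Green fluorescence and viability by CellTiter-Glo luminescence (multiplexed), normalised to DMSO and benzethonium chloride controls. EC50 is the inflection point of the fitted dose-response curve (bottom asymptote free, so it can be relative for partial curves) and is censored at the highest tested concentration. Rows with DSS 0 (no meaningful response) were excluded.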

[13] = tested on: CAL-85-1
In short: (§3)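 Breast cancer cell lines in 20 µl suspension were added to 384-well plates already holding compound at 5 concentrations, spaced in 10-fold steps across a compound-specific 10,000-fold range, and incubated for 72 h. CellTox Green fluorescence (485/520 nm) was read first to measure cell death, followed by CellTiter-Glo luminescence for viability after 10 min at room temperature. Each plate was normalised to 0.1 % DMSO and a positive kill control. EC50 values came from dose-response curve fits and were censored at the top concentration.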

[14] = tested on: MCF-10A; remark: listed apart in the source
In short: as §3

[15] = tested on: SK-BR-3; remark: listed apart in the source
In short: as §3

[16] = tested on: HDQ-P1
In short: as §3

[17] = tested on: HCC1143
In short: as §1

[18] = tested on: CAL-51
Description: as §2

[19] = tested on: CAL-85-1; remark: listed apart in the source
Description: as §2

[20] = tested on: BT-549; remark: listed apart in the source
Description: as §2

[21] = tested on: MFM-223; remark: listed apart in the source
Description: as §2

[22] = tested on: Hs578T; remark: listed apart in the source
Description: as §2

[23] = tested on: BT-474; remark: listed apart in the source
Description: as §2

[24] = tested on: MDA-MB-468; remark: listed apart in the source
Description: as §2

[25] = tested on: MDA-MB-436; remark: listed apart in the source
Description: as §2

[26] = tested on: MDA-MB-231; remark: listed apart in the source
Description: as §2

[27] = tested on: CAL-148
Description: as §2

[28] = tested on: CAL-120; remark: listed apart in the source
In short: as §3

[29] = tested on: CAL-51; remark: listed apart in the source
In short: as §3

[30] = tested on: HCC1937; remark: listed apart in the source
In short: as §3

[31] = tested on: DU-4475
In short: as §3

[32] = tested on: HCC1143; remark: listed apart in the source
In short: as §3

[33] = tested on: HCC1599; remark: listed apart in the source
In short: as §3

[34] = tested on: BT-549; remark: listed apart in the source
In short: as §3

[35] = tested on: MFM-223; remark: listed apart in the source
In short: as §3

[36] = tested on: Hs578T; remark: listed apart in the source
In short: as §3

[37] = tested on: MDA-MB-453
In short: as §3

[38] = tested on: BT-474; remark: listed apart in the source
In short: as §3

[39] = tested on: MDA-MB-468; remark: listed apart in the source
In short: as §3

[40] = tested on: MDA-MB-436; remark: listed apart in the source
In short: as §3

[41] = tested on: MDA-MB-231; remark: listed apart in the source
In short: as §3

[42] = tested on: CAL-148; remark: listed apart in the source
In short: as §3

EC50, CellTiter-Blue viability [1]: 878 nM
EC50, CellTiter-Blue viability [2]: 259 nM
Structure (SMILES): CC(C)(C)c1cc(NC(=O)Nc2ccc(-c3cn4c(n3)sc3cc(OCCN5CCOCC5)ccc34)cc2)no1 [Quizartinib]

EC50, CellTiter-Blue viability [4]: 6280 nM
EC50, CellTiter-Blue viability [1]: 191 nM
EC50, CellTiter-Blue viability [2]: 4320 nM
EC50, CellTiter-Blue viability [7]: 40.7 nM
EC50, CellTiter-Blue viability [8]: 137 nM
EC50, CellTiter-Blue viability [9]: 1560 nM
EC50, CellTiter-Blue viability [10]: 5900 nM
EC50, CellTiter-Blue viability [11]: 5820 nM
EC50, CellTiter-Glo [15]: 49.8 nM
Structure (SMILES): CS(=O)(=O)CCNCc1ccc(-c2ccc3ncnc(Nc4ccc(OCc5cccc(F)c5)c(Cl)c4)c3c2)o1 [Lapatinib]
EC50, CellTiter-Blue viability [3]: 6920 nM
EC50, CellTiter-Blue viability [5]: 9850 nM
EC50, CellTiter-Blue viability [6]: 3790 nM
EC50, CellTox Green [12]: 678 nM
EC50, CellTiter-Glo [13]: 304 nM
EC50, CellTiter-Glo [14]: 504 nM
EC50, CellTiter-Glo [16]: 359 nM

EC50, CellTiter-Blue viability [4]: 4.22 nM
EC50, CellTiter-Blue viability [17]: 7.4 nM
EC50, CellTiter-Blue viability [1]: 111 nM
EC50, CellTiter-Blue viability [2]: 2.7 nM
EC50, CellTiter-Blue viability [7]: 2.93 nM
EC50, CellTiter-Blue viability [8]: 8.24 nM
EC50, CellTiter-Blue viability [9]: 2.7 nM
EC50, CellTiter-Blue viability [10]: 4.49 nM
EC50, CellTiter-Blue viability [11]: 2.29 nM
EC50, CellTiter-Glo [30]: 2.62 nM
EC50, CellTiter-Glo [32]: 3.37 nM
EC50, CellTiter-Glo [33]: 16.9 nM
EC50, CellTiter-Glo [34]: 4.79 nM
EC50, CellTiter-Glo [15]: 0.72 nM
EC50, CellTiter-Glo [37]: 22.6 nM
EC50, CellTiter-Glo [38]: 7.94 nM
EC50, CellTiter-Glo [39]: 3.47 nM
EC50, CellTiter-Glo [40]: 4.07 nM
EC50, CellTiter-Glo [41]: 10.7 nM
Structure (SMILES): CC(=O)O[C@H]1C(=O)[C@@]2(C)[C@H]([C@H](OC(=O)c3ccccc3)[C@]3(O)C[C@H](OC(=O)[C@H](O)[C@@H](NC(=O)c4ccccc4)c4ccccc4)C(C)=C1C3(C)C)[C@]1(OC(C)=O)CO[C@@H]1C[C@@H]2O [Paclitaxel]
EC50, CellTiter-Blue viability [3]: 3.55 nM
EC50, CellTiter-Blue viability [5]: 4.49 nM
EC50, CellTiter-Blue viability [6]: 5.2 nM
EC50, CellTox Green [18]: 2.93 nM
EC50, CellTox Green [19]: 2.42 nM
EC50, CellTox Green [20]: 6.52 nM
EC50, CellTox Green [21]: 3.4 nM
EC50, CellTox Green [12]: 16.8 nM
EC50, CellTox Green [22]: 4.11 nM
EC50, CellTox Green [23]: 11.5 nM
EC50, CellTox Green [24]: 4.52 nM
EC50, CellTox Green [25]: 66.5 nM
EC50, CellTox Green [26]: 8.57 nM
EC50, CellTox Green [27]: 1.16 nM
EC50, CellTiter-Glo [28]: 6.96 nM
EC50, CellTiter-Glo [29]: 7.96 nM
EC50, CellTiter-Glo [31]: 44 nM
EC50, CellTiter-Glo [13]: 4.73 nM
EC50, CellTiter-Glo [35]: 5.86 nM
EC50, CellTiter-Glo [14]: 3.65 nM
EC50, CellTiter-Glo [36]: 6.32 nM
EC50, CellTiter-Glo [16]: 2.81 nM
EC50, CellTiter-Glo [42]: 1.96 nM

Structure (SMILES): CCCC(CCC)C(=O)O [Valproic acid]
EC50, CellTiter-Glo [29]: 441000 nM

EC50, CellTiter-Glo [37]: 7190 nM
Structure (SMILES): COc1ccc(C2=N[C@@H](c3ccc(Cl)cc3)[C@@H](c3ccc(Cl)cc3)N2C(=O)N2CCNC(=O)C2)c(OC(C)C)c1 [Nutlin-3]
EC50, CellTox Green [18]: 252 nM
EC50, CellTox Green [27]: 9050 nM
EC50, CellTiter-Glo [29]: 17.6 nM
EC50, CellTiter-Glo [31]: 2950 nM
EC50, CellTiter-Glo [42]: 7030 nM

EC50, CellTiter-Blue viability [4]: 16400 nM
EC50, CellTiter-Blue viability [2]: 5580 nM
EC50, CellTiter-Blue viability [7]: 12600 nM
EC50, CellTiter-Blue viability [8]: 28900 nM
EC50, CellTiter-Blue viability [9]: 7120 nM
EC50, CellTiter-Blue viability [10]: 14700 nM
EC50, CellTiter-Blue viability [11]: 7150 nM
EC50, CellTiter-Glo [34]: 17700 nM
EC50, CellTiter-Glo [39]: 7120 nM
Structure (SMILES): C[C@@H]1C=C2C(=O)O[C@@H]3CC[C@H](C1)[C@]23O [Galiellalactone]
EC50, CellTiter-Blue viability [5]: 38200 nM
EC50, CellTiter-Blue viability [6]: 44600 nM
EC50, CellTox Green [19]: 47400 nM
EC50, CellTiter-Glo [29]: 2320 nM
EC50, CellTiter-Glo [13]: 10500 nM
